Experimental data from patent US20260166162A1, “CARBON CHAIN SUBSTANCE FOR REGULATING TRANSMEMBRANE TRANSPORT AND FLUIDITY OF CELL MEMBRANES, AND PREPARATION AND USE THEREOF” (priority 2022, published 2026).
pIC50: −log10 of the molar value. Like-named read-outs stand apart in the source and are kept apart here.

How the values were obtained:
Pseudomonas aeruginosa = test: Bacteriostasis/sterilization test (plate count); assay type: cell-based
Streptococcus pneumoniae = test: Bacteriostasis/sterilization test (plate count); assay type: cell-based
H5N1 pseudovirus = assay type: cell-based, Influenza pseudovirus H5N1-Fluc
Escherichia coli = test: Bacteriostasis/sterilization test (plate count); assay type: cell-based
Klebsiella pneumoniae = test: Bacteriostasis/sterilization test (plate count); assay type: cell-based
[1] = system: Methicillin-resistant Staphylococcus aureus; test: Bacteriostasis/sterilization test (plate count); assay type: cell-based
H7N9 pseudovirus = assay type: cell-based, Influenza pseudovirus H7N9-Fluc
HIV pseudovirus = assay type: cell-based, HIV pseudovirus HIV18A-41
Staphylococcus aureus = test: Bacteriostasis/sterilization test (plate count); assay type: cell-based
SARS-CoV-2 pseudovirus = assay type: cell-based, SARS-CoV-2 pseudovirus B.1.526.2
Neocopyovirus = assay type: in vivo; conditions: 1 mM; n=3
293T cells = test: Cellular phagocytosis of DiD-loaded lipid vesicles (nano-drugs) by 293T cells (Example II-51, Table II-29); assay type: cell-based; conditions: 293T cells pretreated 4 h, DiD lipid vesicles 2 h, n=3, untreated control 226.46 ± 1.26
[2] = system: SARS-CoV-2 pseudovirus (B.1.526.2); assay type: cell-based; conditions: n=3
Hela cells = test: Cell membrane fluidity (Laurdan fluorescence recovery) in Hela cells; assay type: cell-based

In the case of `CCCCCCCC/C=C\CCCCCCCC(=O)OC(C)C(N)C(=O)O` (stereo not shown), the “Inhibition rate (%)” value (Pseudomonas aeruginosa; 0.035 mM (Table 25)) was 99%, the “Inhibition rate (%)” value (Streptococcus pneumoniae; 0.035 mM (Table 25)) was 99% and the “Sterilization rate (%)” value (H5N1 pseudovirus) was 99%. The “Inhibition rate (%)” value (Escherichia coli; 0.035 mM (Table 25)) was 99%, the “Inhibition rate (%)” value (Klebsiella pneumoniae; 0.035 mM (Table 25)) was 99% and the “Inhibition rate (%)” value ([1]; 0.035 mM (Table 25)) was 99%. For the same compound, the “Sterilization rate (%)” value (H7N9 pseudovirus) was 99%, the “Sterilization rate (%)” value (HIV pseudovirus) was 99% and the “Inhibition rate (%)” value (Staphylococcus aureus; 0.035 mM (Table 25)) was 99%. For the same compound, the inhibition rate (Staphylococcus aureus; concentration 0.035 mM) was “greater than 99%”, the pIC50 (Staphylococcus aureus; read-out: half inhibition concentration) was 5.05 and the “Sterilization rate (%)” value (SARS-CoV-2 pseudovirus) was 99%.

For `CCCCCCCC(=O)OCC1OC(O)C(O)C(O)C1O` (stereo not shown), the “Sterilization rate (%)” value (Pseudomonas aeruginosa; 9 mM, 2 h) was over 99%, the “Sterilization rate (%)” value (Streptococcus pneumoniae; 9 mM, 2 h) was over 99% and the “Sterilization rate (%)” value (Escherichia coli; 9 mM, 2 h) was over 99%. The “Sterilization rate (%)” value (Klebsiella pneumoniae; 9 mM, 2 h) was over 99%, the “Sterilization rate (%)” value ([1]; 9 mM, 2 h, listed as printed as Methicillin-resistant Streptococcus pneumoniae) was over 99% and the pIC50 (Staphylococcus aureus; 2 h, read-out: half maximal inhibition concentration) was 2.35. The inhibition rate (Staphylococcus aureus; concentration 72 mM-9 mM, 2 h) was “greater than 99%”.

`CCC=CCC=CCC=CCC=CCC=CCCCC(=O)OCC(N)C(=O)O` (stereo not shown) [Serine-EPA] showed a Fluorescence intensity (Neocopyovirus) of 4.8 ± 0.96.

`CCCCCC=CCC=CCCCCCCCC(=O)OCC(N)C(=O)O` (stereo not shown) [Serine-LA] was tested, and the Fluorescence intensity (293T cells; 2 nM) was 89.36 ± 0.21, the Fluorescence intensity (293T cells; 5 nM) was 46.06 ± 0.02 and the Fluorescence intensity (293T cells; 10 nM) was 49.05 ± 0.22. For the same compound, the Fluorescence intensity (293T cells; 50 nM) was 51.34 ± 0.32, the Fluorescence intensity (293T cells; 100 nM) was 59.65 ± 0.54 and the Fluorescence intensity (293T cells; 1 uM) was 458.20 ± 0.55. It also gave a Fluorescence intensity (293T cells; 10 uM) of 103.58 ± 0.71, a Fluorescence intensity (293T cells; 50 uM) of 110.15 ± 0.41 and a Fluorescence intensity (293T cells; 100 uM) of 14.31 ± 0.13. For the same compound, the Fluorescence intensity (Neocopyovirus) was 2.8 ± 0.56, the “Inhibition rate (%)” value ([2]; 2 nM) was 60.54 ± 5.59% and the “Inhibition rate (%)” value ([2]; 5 nM) was 79.66 ± 5.97%. The “Inhibition rate (%)” value ([2]; 10 nM) was 78.34 ± 4.87%, the “Inhibition rate (%)” value ([2]; 50 nM) was 77.33 ± 4.56% and the “Inhibition rate (%)” value ([2]; 100 nM) was 73.66 ± 1.33%. The “Inhibition rate (%)” value ([2]; 1 μM) was -102.33 ± 4.36%, the “Inhibition rate (%)” value ([2]; 10 μM) was 54.26 ± 0.53% and the “Inhibition rate (%)” value ([2]; 50 μM) was 51.36 ± 0.87%. For the same compound, the “Inhibition rate (%)” value ([2]; 100 μM) was 93.68 ± 0.73%.

`CCCCCCCC(=O)O` [n-octanoic acid] was tested, and the Fluorescence intensity (293T cells; 2 nM) was 157.30, the Fluorescence intensity (293T cells; 5 nM) was 108.56 and the Fluorescence intensity (293T cells; 10 nM) was 83.70. For the same compound, the Fluorescence intensity (293T cells; 50 nM) was 76.25, the Fluorescence intensity (293T cells; 100 nM) was 106.35 and the Fluorescence intensity (293T cells; 1 uM) was 141.79. For the same compound, the Fluorescence intensity (293T cells; 10 uM) was 124.85, the Fluorescence intensity (293T cells; 50 uM) was 64.86 and the Fluorescence intensity (293T cells; 100 uM) was 36.35 ± 6.23. For the same compound, the Fluorescence intensity (Neocopyovirus) was 5.8 ± 0.76, the “Fluorescence recovery rate %” value (Hela cells; 2 nM, 20 s) was 65.57% and the “Fluorescence recovery rate %” value (Hela cells; 2 nM, 40 s) was 66.78%. For the same compound, the “Fluorescence recovery rate %” value (Hela cells; 2 nM, 60 s) was 66.54%, the “Fluorescence recovery rate %” value (Hela cells; 2 nM, 80 s) was 67.22% and the “Fluorescence recovery rate %” value (Hela cells; 5 nM, 20 s) was 66.75%. For the same compound, the “Fluorescence recovery rate %” value (Hela cells; 5 nM, 40 s) was 67.05%, the “Fluorescence recovery rate %” value (Hela cells; 5 nM, 60 s) was 67.59% and the “Fluorescence recovery rate %” value (Hela cells; 5 nM, 80 s) was 66.98%. The “Fluorescence recovery rate %” value (Hela cells; 10 nM, 20 s) was 64.02%, the “Fluorescence recovery rate %” value (Hela cells; 10 nM, 40 s) was 65.23% and the “Fluorescence recovery rate %” value (Hela cells; 10 nM, 60 s) was 65.45%. The “Fluorescence recovery rate %” value (Hela cells; 10 nM, 80 s) was 66.51%, the “Fluorescence recovery rate %” value (Hela cells; 50 nM, 20 s) was 67.32% and the “Fluorescence recovery rate %” value (Hela cells; 50 nM, 40 s) was 67.94%. The “Fluorescence recovery rate %” value (Hela cells; 50 nM, 60 s) was 68.02%, the “Fluorescence recovery rate %” value (Hela cells; 50 nM, 80 s) was 68.65% and the “Fluorescence recovery rate %” value (Hela cells; 50 μM, 20 s) was 64.31%. The “Fluorescence recovery rate %” value (Hela cells; 50 μM, 40 s) was 69.09%, the “Fluorescence recovery rate %” value (Hela cells; 50 μM, 60 s) was 73.41% and the “Fluorescence recovery rate %” value (Hela cells; 50 μM, 80 s) was 78.32%. For the same compound, the “Fluorescence recovery rate %” value (Hela cells; 100 μM, 20 s) was 66.15%, the “Fluorescence recovery rate %” value (Hela cells; 100 μM, 40 s) was 71.58% and the “Fluorescence recovery rate %” value (Hela cells; 100 μM, 60 s) was 75.11%. For the same compound, the “Fluorescence recovery rate %” value (Hela cells; 100 μM, 80 s) was 79.84%.
